Data taken from PubChem BioAssay AID1959 (Broad Institute, 2009).
Calls of active or inactive are those of the source.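 Rule for the calls: active = growth-inhibition EC50 no more than tenfold above the top tested dose; inconclusive = flat fit between 30% and 70% inhibition, or unreliable fit; inactive = EC50 more than tenfold above the top tested dose.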

Test system: E. coli NEB5alpha growth, BacTiter-Glo luminescence, 4 h
Assay: Escherichia coli growth inhibition, dose response, counter-screen for MEX-5/POS-1 RNA-binding inhibitor project, luminescence, NEB5alpha (AID 1959);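 note: pUC19-transformed ampicillin-resistant cells grown in LB with ampicillin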

| SMILES | EC50 |
| --- | --- |
| O=C(O)c1ccccc1-c1ccc(C=C2C(=O)N(c3ccccc3)C(=S)N(c3ccccc3)C2=O)o1 | > 11 µM (inactive) |
| O=C(c1ccc(Br)s1)N1CCN(c2ccccn2)CC1 | > 11 µM (inactive) |
| COc1cc(OC)c(OC)cc1/C=C1\Oc2cc(OS(C)(=O)=O)ccc2C1=O | > 11 µM (inactive) |
| Cc1ccc(S(=O)(=O)Nc2ccccc2F)cc1C(=O)NNC(=O)c1ccccc1O | > 11 µM (inactive) |
| c1ccc(-c2cn3nc4c(nc3n2)CCCC4)cc1 | > 11 µM (inactive) |
| Cc1nc2sc(-c3ccccc3)cc2c(=O)n1N | > 11 µM (inactive) |
| Cn1c(=O)c(-c2cc(=O)[nH][nH]2)c(O)c2ccccc21 | > 11 µM (inactive) |
| O=[N+]([O-])c1ccc(C2=Nc3cc(Cl)ccc3OC2)cc1 | > 11 µM (inactive) |
| Cc1ccc(N(C)S(=O)(=O)c2c(C)noc2/C=C/N(C)C)cc1 | > 11 µM (inactive) |
| Cc1[nH][nH]c(=O)c1C(c1cc([N+](=O)[O-])ccc1O)c1c(C)[nH][nH]c1=O | > 11 µM (inactive) |
| Cc1cc(C)c2c(c1)NC(c1cc3c(cc1Br)OCO3)C1CC=CC21 (stereo not drawn) | > 11 µM (inactive) |
| O=c1[nH]c(=O)n(CCc2ccc(F)cc2)c(O)c1C=NCCCn1ccnc1 | > 11 µM (inactive) |
| CCCNS(=O)(=O)c1ccc(CCC(=O)NCc2ccc3c(c2)OCO3)cc1 | > 11 µM (inactive) |
| Cc1nc(S/C(=C/c2ccc(-c3ccc(C(=O)O)cc3)o2)C(=O)O)n[nH]1 | > 11 µM (inactive) |
| COc1ccc2nc3ccccc3nc2c1NC(=O)c1ccc(Cl)cc1Cl | > 11 µM (inactive) |
| CCCCC1=CC2=CC(=O)C(C)(OC(=O)CCC(=O)OC)C(=O)C2=CO1 (stereo not drawn) | > 11 µM (inactive) |
| CCOc1cc(C2C(C#N)=C(N)OC(C)=C2C(C)=O)cc(Br)c1O (stereo not drawn) | > 11 µM (inactive) |
| O=c1oc2ccc(Cl)cc2nc1/C=C(\O)c1ccco1 | > 11 µM (inactive) |
| Cc1ccccc1-c1ccc(/C=C2/SC(N3CCOCC3)=NC2=O)o1 | > 11 µM (inactive) |
| CC(C)COc1ccc(/C=C2/Sc3ccccc3C2=O)cc1 | > 11 µM (inactive) |
| Cc1ccc(/C=C2/Sc3ccc(C(=O)N4CCN(c5ccccn5)CC4)cc3NC2=O)cc1 | > 11 µM (inactive) |
| CCN(CC)C(=O)c1sc2nc(-c3cccs3)cc(-c3cccs3)c2c1N | > 11 µM (inactive) |
| Oc1ccc(C[C@H]2NCCc3cc(O)c(O)cc32)cc1O | > 11 µM (inactive) |

| SMILES | EC50 |
| --- | --- |
| O=c1c(O)cccc2cc(O)c(O)c(O)c12 | > 11 µM (inactive) |
| CCOC(=O)C1Nc2ccc(C)cc2C2C=CCC12 (stereo not drawn) | > 11 µM (inactive) |
| Cc1nc(N2CCN(Cc3ccccc3)CC2)c(C#N)c2c1COC(C)(C)C2 | > 11 µM (inactive) |
| CN(C)CCCN(C(=O)/C=C/c1cccs1)c1nc2ccc(F)cc2s1 | > 11 µM (inactive) |
| CC(C)OCC(O)CN1CCN(CCN2C(=O)c3cccc4cccc(c34)C2=O)CC1 (stereo not drawn) | > 11 µM (inactive) |
| Cc1cc(C=C2C(=O)c3ccccc3C2=O)c(C)n1-c1ccc(C(=O)O)cc1 | > 11 µM (inactive) |
| O=C(N/N=C\c1c(O)ccc2ccccc12)c1cncc(Br)c1 | > 11 µM (inactive) |
| Cc1cccc(C)c1NC(=O)NN=C1CCCCC1 | > 11 µM (inactive) |
| Cc1cc(O)c(CN(C)C)c2c1C(=O)/C(=C/c1ccco1)O2 | > 11 µM (inactive) |
| O=c1[nH]c(/C=C\c2ccc(O)c(O)c2)nc(O)c1[N+](=O)[O-] | > 11 µM (inactive) |
| O=C1/C(=C/c2ccc(Br)cc2)Oc2cc(O)ccc21 | > 11 µM (inactive) |
| COc1ccc(N2C(=O)/C(=C/c3ccc(C)o3)C(=O)NC2=S)c(OC)c1 | > 11 µM (inactive) |
| COC(=O)CNc1cccc(C(F)(F)F)c1 | > 11 µM (inactive) |
| N#Cc1c(C#N)c(-c2ccccc2)n(-c2ccc(C(=O)O)cc2)c1N | > 11 µM (inactive) |
| CCCOc1ccc(/C=c2\sc3nc(-c4ccco4)nn3c2=O)cc1OCC | > 11 µM (inactive) |
| CCOC(=O)c1c(-n2c(C)cc(/C=C3/C(=O)NC(=O)N(CC)C3=O)c2C)sc2c1CCCC2 | > 11 µM (inactive) |
| CCN1C(=O)NC(=O)/C(=C\c2cn(CC(=O)O)c3ccccc23)C1=O | > 11 µM (inactive) |
| Cc1nn2c(N3CCOCC3)c3c(nc2c1-c1ccccc1)CCCC3 | > 11 µM (inactive) |
| CN(C)c1ccc(O)c2c1CC1CC3C(N(C)C)C(=O)C(C(N)=O)=C(O)[C@@]3(O)C(=O)C1=C2O (stereo partly drawn) | 6.49 µM |
| Cc1nc2ccccc2c(=O)n1/N=C/c1ccc(O)c(O)c1O | > 11 µM (inactive) |
| CCN(CC)c1ccc(/C=C/C(=O)c2ccc(Br)cc2)cc1 | > 11 µM (inactive) |
| CCC1=NN2C(=N)/C(=C\c3ccc(SCc4ccco4)o3)C(=O)N=C2S1 | > 11 µM (inactive) |
| O=C(O)C(=O)/C(=C\c1ccsc1)c1ccc2ccccc2n1 | > 11 µM (inactive) |

| SMILES | EC50 |
| --- | --- |
| CC1C2C(C)N(C)C(=O)N(C)C2N(C)C(=O)N1C (stereo not drawn) | > 11 µM (inactive) |
| Cc1ccc2nc(-c3ccc(O)c(O)c3)cn2c1 | > 11 µM (inactive) |
| O=C(NNS(=O)(=O)c1ccc([N+](=O)[O-])cc1)C(=O)Nc1cccc(C(=O)O)c1 | > 11 µM (inactive) |
| Cc1cc(/C=N/NC(=O)c2cccc(N(C)C)c2)c(C)n1-c1cc(C(=O)O)cc(C(=O)O)c1 | > 11 µM (inactive) |
| O=C(O)C1Nc2c(C(=O)N3CCOCC3)cccc2C2C=CCC12 (stereo not drawn) | > 11 µM (inactive) |
| CC(C)(C)OC(=O)NCCCC1=CC2=CC(=O)C(C)(OC(=O)c3ccco3)C(=O)C2=CO1 (stereo not drawn) | > 11 µM (inactive) |
| N=c1c(S(=O)(=O)c2ccc(Cl)cc2)cc2c(=O)n3ccccc3nc2n1C1CCCC1 | > 11 µM (inactive) |
| O=C(O)c1[nH]c2ccccc2c1C(c1cc(Cl)cc([N+](=O)[O-])c1O)c1c(C(=O)O)[nH]c2ccccc12 | > 11 µM (inactive) |
| COc1ccc(-n2c(NNC(C)=O)nc3sc4c(c3c2=O)CCCC4)cc1 | > 11 µM (inactive) |
| Cc1cccc(C(=O)NCCCNC(=O)c2cccc(C)c2)c1 | > 11 µM (inactive) |
| O=c1cc(-c2ccccc2Cl)oc2c(NS(=O)(=O)c3cc(Cl)cc(Cl)c3O)ccc(O)c12 | > 11 µM (inactive) |
| Cn1nc(-c2ccc(Cl)cc2)nc2c(=O)n(C)c(=O)nc1-2 | > 11 µM (inactive) |
| COc1ccc(-c2cc(C(=O)N/N=C(\C)c3ccco3)c3ccccc3n2)c(OC)c1 | > 11 µM (inactive) |
| CC1(O)C(=O)C=C2C=C(C3CC3)OC=C2C1=O (stereo not drawn) | > 11 µM (inactive) |
| O=C(O)CCc1ccc(-c2ccccc2)n1-c1cccc(C(=O)O)c1 | > 11 µM (inactive) |
| O=C1c2ccccc2C(=O)N1CCCc1nc(-c2ccncc2)no1 | > 11 µM (inactive) |
| COc1ccc(N=Cc2c(O)n(Cc3ccccc3)c(=S)[nH]c2=O)c(OC)c1 | > 11 µM (inactive) |
| CC(=O)/C(N=Nc1nc2c([nH]1)c(=O)n(C)c(=O)n2C)=C(\C)O | > 11 µM (inactive) |
| Cc1cc(/C=C2\SC(=S)N(Cc3ccco3)C2=O)c(C)n1-c1cccnc1 | > 11 µM (inactive) |
| C/C(=N\Nc1ccc([N+](=O)[O-])cc1[N+](=O)[O-])c1cc2c(ccc3ccccc32)oc1=O | > 11 µM (inactive) |
| Cc1nn(-c2ccccc2)c(N2CCCC2)c1/C=N/NC(=O)c1cc(-c2cccnc2)nc2ccccc12 | > 11 µM (inactive) |
| CCCCOC(=O)c1ccc(N=Nc2c(C)c(C#N)c(O)[nH]c2=O)cc1 | > 11 µM (inactive) |
